Drawing on patent publication US20110039700A1, “Method for Improved Utilization of the Production Potential of Transgenic Plants Introduction” (priority 2008, published 2011), this text covers mortality for 2 molecules.

What all share (format): in vivo
Test [1] relates to Spodoptera frugiperda. The test can be described thus: Foliar application Spodoptera frugiperda/cotton. To be noted: 72 h, read-out: Mortality in % after 3^d. On the procedure: Individually potted transgenic cotton plants with Lepidoptera resistance and herbicide resistance (Line DP444 BG/RR) are treated with the desired product against the fall army worm (Spodoptera frugiperda).
(§1) After the desired period of time, the mortality in % is determined. Here 100% means that all caterpillars have been killed; 0% means that none of the caterpillars have been killed.

The test system of test [2] is Spodoptera frugiperda. The test can be described thus: Drench application Spodoptera frugiperda/maize. To be noted: soil, 96 h, read-out: Mortality in % after 4^d. On the procedure: Pots containing in each case 5 transgenic maize plants with Lepidoptera, Coleoptera and/or herbicide resistance are treated by drenching against the fall army worm (Spodoptera frugiperda) in 2 replications.
as §1

A further test has as its system Spodoptera exigua. The test can be described thus: Foliar application Spodoptera exigua/maize. To be noted: 96 h, read-out: Mortality in % after 4^d. On the procedure:
Pots containing in each case 5 transgenic maize plants with Lepidoptera, Coleoptera and/or herbicide resistance are treated against the beet army worm (Spodoptera exigua) in 2 replications.
as §1

Turning to `CCC(C)(C)C(=O)OC1=C(c2ccc(Cl)cc2Cl)C(=O)OC12CCCCC2` [spirodiclofen], the mortality at 500 ppm in the test on Spodoptera frugiperda [1] was determined as 0%. Consider `Cc1cc(C)c(C2=C(OC(=O)CC(C)(C)C)C3(CCCC3)OC2=O)c(C)c1` [spiromesifen], for which the mortality at 100 ppm with Spodoptera frugiperda [2] was determined as 10%; in the test with Spodoptera exigua it was 0%.

The mortality is the share of the test organisms that died.
